Source: patent publication US8470822B2, “Folate mimetics and folate-receptor binding conjugates thereof” (Purdue Research Foundation, priority 2001, dated 2013)
Values belong to the molecule of their own block, whether it stands above or below them.

Columns and labels:
[1] = molecular target: T1, folate receptor on KB cells (Homo sapiens, UniProt P15328); test: Relative binding affinity: competition with 3H-folic acid for binding to KB cells; details: 100 nM 3H-folic acid, 15 minutes on ice; for relative binding activity compared to folic acid: folic acid set to 1; for EC50: read-out: EC50 (displacement of 3H-folic acid bound to folate receptor)
T1 construct: host or cells: KB cells (intact, trypsinized, suspended)
T1 sequence (P15328 25-234): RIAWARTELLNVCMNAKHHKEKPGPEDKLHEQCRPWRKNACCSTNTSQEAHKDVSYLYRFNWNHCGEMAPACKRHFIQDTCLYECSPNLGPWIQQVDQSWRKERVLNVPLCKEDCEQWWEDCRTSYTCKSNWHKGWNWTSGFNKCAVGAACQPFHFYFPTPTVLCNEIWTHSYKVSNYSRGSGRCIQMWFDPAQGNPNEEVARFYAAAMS
Procedure: Relative binding affinity. […] The relative affinity of various folate derivatives was determined according to the method described by Westerhoff et al. (Mol. Pharm., 1995, 48:459-471) with slight modification. Briefly, folate receptor-positive KB cells were gently trypsinized in 0.25% trypsin in phosphate-buffered saline (PBS) at room temperature for 3 minutes and then diluted in folate-free RPMI 1640 media (FFRPMI) (Gibco) supplemented with 10% heat-inactivated fetal calf serum. Following a 5 minute 800×g spin and one PBS wash, the final cell pellet was suspended in FFRPMI (no serum). […] Samples were centrifuged at 10,000×g for 5 minutes, cell pellets were suspended in buffer, transferred to individual vials containing 5 mL of scintillation cocktail, and then counted for radioactivity.
Binding activity. The binding activity of pteroyl hydrazide and pteroylhydrazido-BTCA-DAS was determined using the assay described in Example IV.

[2] = tested on: folate-receptor-positive human KB cell tumor xenografts; test: Biodistribution of 111In radiotracer in KB tumor-bearing athymic mice after intravenous administration; assay type: in vivo
Procedure: Our primary animal model for evaluation of the biodistribution and pharmacokinetics of folate-receptor-targeted radiopharmaceuticals has been athymic mice bearing subcutaneously implanted folate-receptor-positive human KB cell tumors. […] After 3 weeks on folate-free diet, mouse serum folate levels drop to 25±7 nM from the initial 720±260 nM serum folate level when the animals are fed normal rodent chow. This dietary intervention is believed to be a reasonable manipulation of the animal model, since the mice would have serum folate levels only slightly higher than the folate concentration of normal human serum. Thus, in these mouse biodistribution studies the radiotracer is competing for tumor folate receptors with physiologically relevant concentrations of endogenous unlabeled serum folate.
The substantial retention of ^111In in the kidneys is fully consistent with the binding of ^111In-CYK4-013 to tissue folate receptors, since the renal proximal tubule is a known normal tissue site of folate receptor expression. […] The behavior of the ^111In-CYK4-013 radiopharmaceutical in this animal model (Table 2) is very similar to that observed for ^111In-DTPA-Folate (Table 3).
Results. Similar to ^111In-DTPA-Folate, ^111In-CYK4-013 selectively localized in the folate-receptor-positive tumor xenografts, and afforded prolonged tumor retention of ^111In (5.4±0.8; 5.5±1.1; and 3.6±0.6% ID/g at 1 hour, 4 hours, and 24 hours, respectively) (Table 2). […] Blockable binding was also observed in the kidneys, where the folate receptor occurs in the proximal tubules.

[3] = 4 Hours Post Injection BLOCKED, Folic Acid Dose 495 ± 79 μg/kg, n = 4

SMILES: NNC(=O)c1ccc(NCc2cnc3nc(N)nc(O)c3n2)cc1 [Pteroyl hydrazide, pteroyl hydrazide]
relative binding activity compared to folic acid [1]: 0.74
EC50 [1]: 94 nM

SMILES: Nc1nc(O)c2nc(CNc3ccc(C(=O)O[C@H](C(=O)O)c4ccccc4)cc3)cnc2n1 [ACBP, (S)-α-carboxybenzoyl pteroate]
relative binding activity compared to folic acid [1]: 0.46
EC50 [1]: 204 nM

Percentage of Injected 111In Dose Per Gram: Blood ([2]; 1 Hour Post Injection, n = 4): 0.14 ± 0.03 % ID/g
Percentage of Injected 111In Dose Per Gram: Heart ([2]; 1 Hour Post Injection, n = 4): 2.3 ± 0.4 % ID/g
Percentage of Injected 111In Dose Per Gram: Kidney ([2]; 1 Hour Post Injection, n = 4): 90 ± 9 % ID/g
Percentage of Injected 111In Dose Per Gram: Liver & Gall Bladder ([2]; 1 Hour Post Injection, n = 4): 4.0 ± 1.5 % ID/g
Percentage of Injected 111In Dose Per Gram: Lungs ([2]; 1 Hour Post Injection, n = 4): 1.3 ± 0.1 % ID/g
Percentage of Injected 111In Dose Per Gram: Muscle ([2]; 1 Hour Post Injection, n = 4): 3.5 ± 0.8 % ID/g
Percentage of Injected 111In Dose Per Gram: Spleen ([2]; 1 Hour Post Injection, n = 4): 0.36 ± 0.03 % ID/g
Percentage of Injected 111In Dose Per Gram: Stomach, Intestines & Contents ([2]; 1 Hour Post Injection, n = 4): 1.0 ± 0.2 % ID/g
Percentage of Injected 111In Dose Per Gram: Tumor ([2]; 1 Hour Post Injection, n = 4): 5.3 ± 0.4 % ID/g
Tumor/blood ratio ([2]; 1 Hour Post Injection, n = 4): 38 ± 7
Tumor/kidney ratio ([2]; 1 Hour Post Injection, n = 4): 0.060 ± 0.011
Tumor/liver ratio ([2]; 1 Hour Post Injection, n = 4): 1.5 ± 0.5
Tumor/muscle ratio ([2]; 1 Hour Post Injection, n = 4): 1.6 ± 0.3
Tumor/kidney ratio ([2]; 4 Hours Post Injection BLOCKED, Folic Acid Dose 495 ± 79 μg/kg): 0.050 ± 0.023
Percentage of Injected 111In Dose Per Gram: Kidney ([2]; 4 Hours Post Injection BLOCKED, Folic Acid Dose 495 ± 79 μg/kg, n = 3, anomalous animal excluded): 2.3 ± 1.0 % ID/g
Percentage of Injected 111In Dose Per Gram: Blood [2, 3]: 0.029 ± 0.011 % ID/g
Percentage of Injected 111In Dose Per Gram: Heart [2, 3]: 0.022 ± 0.010 % ID/g
Percentage of Injected 111In Dose Per Gram: Liver & Gall Bladder [2, 3]: 0.12 ± 0.03 % ID/g
Percentage of Injected 111In Dose Per Gram: Lungs [2, 3]: 0.065 ± 0.021 % ID/g
Percentage of Injected 111In Dose Per Gram: Muscle [2, 3]: 0.023 ± 0.013 % ID/g
Percentage of Injected 111In Dose Per Gram: Spleen [2, 3]: 0.060 ± 0.021 % ID/g
Percentage of Injected 111In Dose Per Gram: Stomach, Intestines & Contents [2, 3]: 0.49 ± 0.20 % ID/g
Percentage of Injected 111In Dose Per Gram: Tumor [2, 3]: 0.16 ± 0.07 % ID/g
Tumor/blood ratio [2, 3]: 5.5 ± 0.8
Tumor/liver ratio [2, 3]: 1.4 ± 0.4
Tumor/muscle ratio [2, 3]: 8.4 ± 3.8
Percentage of Injected 111In Dose Per Gram: Blood ([2]; 4 Hours Post Injection, n = 4): 0.064 ± 0.007 % ID/g
Percentage of Injected 111In Dose Per Gram: Heart ([2]; 4 Hours Post Injection, n = 4): 2.0 ± 0.3 % ID/g
Percentage of Injected 111In Dose Per Gram: Kidney ([2]; 4 Hours Post Injection, n = 4): 85 ± 12 % ID/g
Percentage of Injected 111In Dose Per Gram: Liver & Gall Bladder ([2]; 4 Hours Post Injection, n = 4): 2.2 ± 0.4 % ID/g
Percentage of Injected 111In Dose Per Gram: Lungs ([2]; 4 Hours Post Injection, n = 4): 1.1 ± 0.3 % ID/g
Percentage of Injected 111In Dose Per Gram: Muscle ([2]; 4 Hours Post Injection, n = 4): 2.9 ± 0.7 % ID/g
Percentage of Injected 111In Dose Per Gram: Spleen ([2]; 4 Hours Post Injection, n = 4): 0.35 ± 0.11 % ID/g
Percentage of Injected 111In Dose Per Gram: Stomach, Intestines & Contents ([2]; 4 Hours Post Injection, n = 4): 1.0 ± 0.2 % ID/g
Percentage of Injected 111In Dose Per Gram: Tumor ([2]; 4 Hours Post Injection, n = 4): 6.8 ± 1.2 % ID/g
Tumor/blood ratio ([2]; 4 Hours Post Injection, n = 4): 106 ± 15
Tumor/kidney ratio ([2]; 4 Hours Post Injection, n = 4): 0.080 ± 0.012
Tumor/liver ratio ([2]; 4 Hours Post Injection, n = 4): 3.3 ± 1.1
Tumor/muscle ratio ([2]; 4 Hours Post Injection, n = 4): 2.5 ± 0.9
SMILES: Nc1nc2ncc(CNc3ccc(C(=O)N[C@@H](CCC(=O)NCCNC(=O)CN(CCN(CCN(CC(=O)[O-])CC(=O)[O-])CC(=O)[O-])CC(=O)[O-])C(=O)O)cc3)nc2c(=O)[nH]1.[111In] [^111In-DTPA-Folate, reference compound]

relative binding activity compared to folic acid [1]: 0.48
EC50 [1]: 193 nM
SMILES: Nc1nc2ncc(CNc3ccc(C(=O)NC(C(=O)O)c4ccccn4)cc3)nc2c(=O)[nH]1 (stereo not drawn) [Pte-AP, N-pteroyl-2-amino-2-carboxymethylpyridine]
